Structures can show the parent of a compound that is named as a salt.
Columns and labels:
[1] = biological target: T1, human dopamine transporter (Homo sapiens, UniProt Q01959); experiment: Inhibitory action on human dopamine transporter ([3H]-dopamine uptake in CHO cells); format: cell-based; details: relative to inhibitory activity of 100 μM Nomifensine as 100%, read-out: inhibitory rate (%)
T1 construct: expressed in transfected cells
Text: (1) Construction of Human Dopamine Transporter Expression Plasmid
SRα promoter contained in pTB1411 described in JP-A-H5-076385 was cleaved with restriction enzyme HindIII (manufactured by TAKARA BIO INC.), blunt-ended, further cleaved with restriction enzyme EcoRI (manufactured by TAKARA BIO INC.), and fragmented. On the other hand, pCI vector was cleaved with restriction enzyme BglII (manufactured by TAKARA BIO INC.), blunt-ended with T4 DNA polymerase, and further cleaved with restriction enzyme EcoRI (manufactured by TAKARA BIO INC.). Into this site was inserted an SRα promoter fragment to give pCI-SRa. […]
(§1) One day before the assay, the cultured cells that reached almost confluent were rinsed with PBS (Invitrogen), detached with Trypsin/EDTA (Invitrogen), and collected by a centrifugal operation. The obtained cells were counted, and diluted to 3×10^5 cells per 1 mL medium, and the mixture was dispensed to a 96 well white plate (Corning) at 100 μL per well, and cultured overnight in a CO2 incubator.
On the day of the test, an assay buffer (126 mM NaCl, 4.95 mM KCl, 1.26 mM KH2PO4, 1.26 mM MgSO4, 10 mM HEPES, 2.32 mM CaCl2, 5.52 mM Glucose, 0.5% BSA) was prepared, the medium in the cell plate was removed and the assay buffer was added by 80 μL. […] The radioactivity was measured by TopCount (PerkinElmer). […]

[2] = biological target: T2, human serotonin transporter (Homo sapiens, UniProt P31645); experiment: Inhibitory action on human serotonin transporter ([3H]-5-hydroxytryptamine uptake in CHO cells); format: cell-based; details: relative to inhibitory activity of 10 μM Paroxetine as 100%, read-out: inhibitory rate (%)
T2 construct: expressed in transfected cells
T2 sequence (P31645 whole entry): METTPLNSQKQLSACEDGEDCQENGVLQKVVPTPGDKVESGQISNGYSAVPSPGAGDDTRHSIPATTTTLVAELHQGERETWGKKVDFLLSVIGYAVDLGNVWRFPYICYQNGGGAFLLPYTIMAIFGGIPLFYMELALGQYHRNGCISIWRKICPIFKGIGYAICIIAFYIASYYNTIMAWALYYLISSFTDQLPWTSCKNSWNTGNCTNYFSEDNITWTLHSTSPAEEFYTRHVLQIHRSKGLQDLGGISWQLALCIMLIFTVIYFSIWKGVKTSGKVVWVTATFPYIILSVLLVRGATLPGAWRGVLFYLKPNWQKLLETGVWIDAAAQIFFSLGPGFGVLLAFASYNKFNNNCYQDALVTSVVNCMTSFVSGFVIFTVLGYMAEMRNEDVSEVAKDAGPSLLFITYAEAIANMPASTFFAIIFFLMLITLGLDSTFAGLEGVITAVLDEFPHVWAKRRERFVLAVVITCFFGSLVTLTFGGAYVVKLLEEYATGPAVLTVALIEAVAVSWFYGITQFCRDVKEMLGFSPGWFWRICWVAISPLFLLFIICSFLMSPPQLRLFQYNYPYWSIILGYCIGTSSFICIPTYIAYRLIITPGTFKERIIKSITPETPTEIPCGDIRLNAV
Text: (2) Preparation of Human Monoamine Expressing Cell
(§2) Human serotonin transporter cDNA was amplified from human brain cDNA library by PCR, and inserted into pCRII-TOPO vector (manufactured by Invitrogen). The base sequence was confirmed and modified, and subcloned to pcDNA3.1 vector (manufactured by Invitrogen), whereby a human serotonin transporter expression plasmid was constructed. Human norepinephrine transporter cDNA was purchased from Invitrogen, and the base sequence was confirm and modified, and subcloned to pcDNA3.1 vector, whereby a human norepinephrine transporter expression plasmid was constructed. […]
as §1, with “The” for “One day before the assay, the”, “medium,” for “medium, and”
(§3) Then, an assay buffer (126 mM NaCl, 4.95 mM KCl, 1.26 mM KH2PO4, 1.26 mM MgSO4, 10 mM HEPES, 2.32 mM CaCl2, 5.52 mM Glucose, 0.5% BSA) was prepared, the medium in the cell plate was removed and the assay buffer was added by 80 μL. […] The radioactivity was measured by TopCount (PerkinElmer). […]

[3] = biological target: human norepinephrine transporter (Homo sapiens, UniProt P23975); experiment: Inhibitory action on human norepinephrine transporter ([3H]-norepinephrine uptake in CHO cells); format: cell-based; details: relative to inhibitory activity of 10 μM DMI as 100%, read-out: inhibitory rate (%)
Chain of human norepinephrine transporter (P23975 whole entry): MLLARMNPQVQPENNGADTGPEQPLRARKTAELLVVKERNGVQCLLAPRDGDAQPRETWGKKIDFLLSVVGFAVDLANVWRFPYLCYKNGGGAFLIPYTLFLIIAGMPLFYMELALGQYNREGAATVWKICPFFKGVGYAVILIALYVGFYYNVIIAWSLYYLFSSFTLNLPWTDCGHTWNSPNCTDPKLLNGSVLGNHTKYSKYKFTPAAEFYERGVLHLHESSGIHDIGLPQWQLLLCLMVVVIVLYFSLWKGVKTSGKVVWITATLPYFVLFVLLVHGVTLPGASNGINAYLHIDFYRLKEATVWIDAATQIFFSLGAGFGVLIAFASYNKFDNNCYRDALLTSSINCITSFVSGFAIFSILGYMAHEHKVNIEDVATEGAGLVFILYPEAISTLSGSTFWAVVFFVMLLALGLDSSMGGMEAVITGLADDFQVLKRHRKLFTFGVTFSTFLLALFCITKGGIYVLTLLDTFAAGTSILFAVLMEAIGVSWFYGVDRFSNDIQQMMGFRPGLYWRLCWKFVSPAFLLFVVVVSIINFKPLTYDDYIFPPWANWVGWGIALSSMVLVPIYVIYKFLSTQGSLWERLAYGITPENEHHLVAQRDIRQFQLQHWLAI
Text: as §2
as §1, with “The” for “One day before the assay, the”
as §3

SD female rats = experiment: Measurement of urethral resistance increasing effect (leak point pressure), intravenous administration; format: in vivo; details: rat, 0.3 mg/kg and 1.0 mg/kg, 10 min after administration, compared to vehicle (Williams' test)
Method: Experimental Example 4 Measurement of Urethral Resistance Increasing Effect
The urethral resistance increasing effect in rat was measured by a modified method of Matsumoto et al. (WO2009/063992) as follows. That is, SD female rats (CLEA Japan, Inc.) were anesthetized with isoflurane (1.0%; Abbott), and the spinal cord was transected at Th8-9 to avoid the voiding reflex. After laparotomy, an intravesical pressure measurement catheter and a saline infusion catheter (PE-100; Clay Adams) were inserted into the bladder. Thereafter, the abdomen of the rat was closed with aronalpha A “Sankyo” (Daiichi Sankyo). […] The intravesical pressure measurement catheter was connected to a computer via a pressure transducer (REF685640; Nihon Koden), an amplifier (RPM-6008M; Nihon Koden), and a multi-channel data analyzer (MP150; Biopack), and changes in the intravesical pressure were recorded on a hard disc at a frequency of 100 samples/sec. […] The LPP value (Pre value) was measured, a drug was intravenously administered, and the measurement of LPP value (Post value) was again started 10 min after administration. […]
The compound of Example 6 (0.3 mg/kg), the compound of Example 6 (1.0 mg/kg) and the vehicle were administered to the rats, and the urethral resistance increasing effect was measured by the aforementioned method.

T1 sequence (Q01959 whole entry): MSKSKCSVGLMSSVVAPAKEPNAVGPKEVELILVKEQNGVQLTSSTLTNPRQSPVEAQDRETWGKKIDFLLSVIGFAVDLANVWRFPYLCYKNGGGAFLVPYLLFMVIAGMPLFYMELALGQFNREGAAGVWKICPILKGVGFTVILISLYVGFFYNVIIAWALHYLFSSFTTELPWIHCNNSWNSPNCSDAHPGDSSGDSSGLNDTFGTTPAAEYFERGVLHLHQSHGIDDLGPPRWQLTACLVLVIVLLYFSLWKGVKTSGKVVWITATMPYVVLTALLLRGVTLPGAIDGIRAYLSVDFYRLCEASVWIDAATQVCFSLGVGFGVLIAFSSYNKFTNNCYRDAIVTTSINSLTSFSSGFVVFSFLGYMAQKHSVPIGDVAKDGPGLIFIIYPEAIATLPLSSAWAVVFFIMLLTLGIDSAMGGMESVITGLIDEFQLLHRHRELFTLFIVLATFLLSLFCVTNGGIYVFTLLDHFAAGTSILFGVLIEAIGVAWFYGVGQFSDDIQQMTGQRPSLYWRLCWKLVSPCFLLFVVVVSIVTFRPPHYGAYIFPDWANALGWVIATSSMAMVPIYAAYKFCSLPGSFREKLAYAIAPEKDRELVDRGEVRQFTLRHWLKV

| SMILES | inhibition at 1 µM ([1]; compound 1 μM) [%] | inhibition at 10 µM ([1]; compound 10 μM) [%] | inhibition at 1 µM ([2]; compound 1 μM) [%] | inhibition at 10 µM ([2]; compound 10 μM, CHO cells expressing human serotonin transporter) [%] | inhibition at 1 µM ([3]; compound 1 μM) [%] | inhibition at 10 µM ([3]; compound 10 μM) [%] | urethral resistance increasing effect (LPP Post value minus Pre value) (SD female rats) |
| --- | --- | --- | --- | --- | --- | --- | --- |
| OC[C@H]1NCCOC[C@@H]1c1ccc(Cl)c(Cl)c1 (racemic) [Example 14, [(5RS,6SR)-6-(3,4-dichlorophenyl)-1,4-oxazepan-5-yl]methanol monohydrochloride] | 87 | 99 | 31 | 79 | 98 | 100 |  |
| CC(=O)NC[C@H]1CNCCO[C@@H]1c1ccc(Cl)c(Cl)c1 (racemic) [Example 6, N-{[(6RS,7SR)-7-(3,4-dichlorophenyl)-1,4-oxazepan-6-yl]methyl}acetamide monohydrochloride] |  |  |  |  |  |  | dose-dependent and significant urethral resistance increasing effect |
